Laboratory results reported in patent publication US20260055065A1, “PYRIDAZINONE COMPOUNDS WHICH MODULATE MUTANT PROTEINS FOR TREATING RESPIRATORY DISEASES” (The Hospital for Sick Children, priority 2022, published 2026).

Assays:
Assay type in all cases: cell-based
F508del-CFTR = molecular target: T1, F508del-CFTR (Homo sapiens, UniProt P13569, DEL508-508); experiment: Dose response, potentiation of forskolin-activated F508del-CFTR chloride channel activity in CFBE41o- cells (fluorescence membrane potential assay); conditions: low temperature (27 degrees Celsius) correction, read-out: potency in potentiating cyclic AMP dependent F508del-CFTR chloride channel activity
T1 construct: F508del-CFTR was endogenously expressed in CFBE41o^− cells; endogenous in cells; host or cells: CFBE41o-
Method: In these studies, F508del-CFTR was endogenously expressed in CFBE41o^− cells and it's trafficking defect corrected by low temperature (27 degrees Celsius) incubation. The fold increase in cyclic AMP dependent F508del-CFTR mediated chloride channel activity induced by potentiator treatment was determined using the fluorescence-based, membrane potential difference assay previously described.

CFTR = molecular target: T2, CFTR (Mustela putorius furo, UniProt Q07E16); experiment: Ussing chamber, primary bronchial epithelial cultures from adult ferret trachea; conditions: 1 μM, after forskolin 100 nM
T2 construct: primary bronchial epithelial cultures prepared from adult ferret trachea; from tissue; host or cells: primary bronchial epithelial cultures from adult ferret trachea
Method: Student's “t” test was conducted.

deltaF508 CFTR = molecular target: T3, deltaF508 CFTR (Homo sapiens, UniProt P13569, DEL508-508); experiment: CFBE potentiator assay (FLIPR membrane potential, temperature-rescued); conditions: CFBE cells, 3 micromolar forskolin; read-out: CFBE potentiator assay pot. pEC50 (converted)
T3 construct: host or cells: CFBE (cystic fibrosis bronchial-derived cell line)
Method: Cell culture: HEK293 cells stably expressing human deltaF508 CFTR were cultured in DMEM/F12 medium containing 10% fetal bovine serum (FBS) and 600 micrograms/mL geneticin. For functional CFTR assays, cryo-preserved cells were quickly thawed in a 37° C. water bath, diluted with warm DMEM/F12 medium containing 10% FBS, spun down at 300×g for 5 mins and resuspended in the same medium at a density of 300,000 cells/mL. A cystic fibrosis bronchial-derived cell line complemented with a 4.7 Kb deltaF508 CFTR cDNA (“CFBE”) was obtained from Dr. Dieter Gruenert under a license from UCSF. These cells were cultured in MEM with Earle's salt (Invitrogen)supplemented with 10% fetal bovine serum (Invitrogen) and 300 micrograms/mL hygromycin (Millipore). CFBE cells were grown on flasks coated with a fibronectin solution containing LHC basal medium (Invitrogen), 0.001% bovine serum albumin (Sigma), 1% v/v Vitrogen 100 (BD Bioscience) and 10 micrograms/mL human fibronectin (Life Technologies). All cells were grown at 37° C. and 5% CO2 unless specified for an assay.
CFBE potentiator assay: CFBE cells were dissociated for 10 mins at 37° C. with Hank's balanced salt solution containing 0.6 mM EDTA and 10% of a 0.25% Trypsin/EDTA solution (all from Life Technologies). An equal amount of CFBE cell growth medium (see Cell culture above) was then added to the flasks and cells were spun at 500×g for 10 mins. Cells were re-suspended in cell medium at a density of 150,000 cells/mL and plated in 384-well black, poly-D-Lysine-coated plates (7,500 cells/well). Cells were then grown at 37° C., 5% CO2 for a total of 6-8 days to allow differentiation. Cell medium was changed every 2-3 days. The day before each experiment, culture medium was removed, fresh culture medium was added and cells were placed at 30° C., 5% CO2 for 18-24 hrs to allow temperature rescue of delF508 CFTR. Potentiation activity was measured as described above for HEK cells except cells were stained for exactly 60 mins, compounds (or DMSO for negative control) were mixed with assay buffer containing 3 micromolar forskolin, and the positive control wells had assay buffer containing 3 micromolar forskolin and 9 micromolar VX-770 (Selleckchem).
Data analysis: CFTR activity was defined as maximum fluorescence signal after addition minus baseline fluorescence. All data were normalized to each plate's positive and negative controls and expressed as percent responses. Concentration response curves were analyzed by fitting the data to a 4-parameter logistic equation in Microcal's Origin or IDBS' Activity Base software.

Wt-CFTR = Wt-CFTR (Homo sapiens, UniProt P13569); experiment: Ussing chamber short circuit current, primary human bronchial epithelial cultures; conditions: 1 μM, after forskolin 100 nM
Method: The impact of SK-POT (compound 11) in potentiating Wt-CFTR mediated transepithelial chloride conduction in primary human bronchial epithelial cultures was then tested.

T2 sequence (Q07E16 whole entry): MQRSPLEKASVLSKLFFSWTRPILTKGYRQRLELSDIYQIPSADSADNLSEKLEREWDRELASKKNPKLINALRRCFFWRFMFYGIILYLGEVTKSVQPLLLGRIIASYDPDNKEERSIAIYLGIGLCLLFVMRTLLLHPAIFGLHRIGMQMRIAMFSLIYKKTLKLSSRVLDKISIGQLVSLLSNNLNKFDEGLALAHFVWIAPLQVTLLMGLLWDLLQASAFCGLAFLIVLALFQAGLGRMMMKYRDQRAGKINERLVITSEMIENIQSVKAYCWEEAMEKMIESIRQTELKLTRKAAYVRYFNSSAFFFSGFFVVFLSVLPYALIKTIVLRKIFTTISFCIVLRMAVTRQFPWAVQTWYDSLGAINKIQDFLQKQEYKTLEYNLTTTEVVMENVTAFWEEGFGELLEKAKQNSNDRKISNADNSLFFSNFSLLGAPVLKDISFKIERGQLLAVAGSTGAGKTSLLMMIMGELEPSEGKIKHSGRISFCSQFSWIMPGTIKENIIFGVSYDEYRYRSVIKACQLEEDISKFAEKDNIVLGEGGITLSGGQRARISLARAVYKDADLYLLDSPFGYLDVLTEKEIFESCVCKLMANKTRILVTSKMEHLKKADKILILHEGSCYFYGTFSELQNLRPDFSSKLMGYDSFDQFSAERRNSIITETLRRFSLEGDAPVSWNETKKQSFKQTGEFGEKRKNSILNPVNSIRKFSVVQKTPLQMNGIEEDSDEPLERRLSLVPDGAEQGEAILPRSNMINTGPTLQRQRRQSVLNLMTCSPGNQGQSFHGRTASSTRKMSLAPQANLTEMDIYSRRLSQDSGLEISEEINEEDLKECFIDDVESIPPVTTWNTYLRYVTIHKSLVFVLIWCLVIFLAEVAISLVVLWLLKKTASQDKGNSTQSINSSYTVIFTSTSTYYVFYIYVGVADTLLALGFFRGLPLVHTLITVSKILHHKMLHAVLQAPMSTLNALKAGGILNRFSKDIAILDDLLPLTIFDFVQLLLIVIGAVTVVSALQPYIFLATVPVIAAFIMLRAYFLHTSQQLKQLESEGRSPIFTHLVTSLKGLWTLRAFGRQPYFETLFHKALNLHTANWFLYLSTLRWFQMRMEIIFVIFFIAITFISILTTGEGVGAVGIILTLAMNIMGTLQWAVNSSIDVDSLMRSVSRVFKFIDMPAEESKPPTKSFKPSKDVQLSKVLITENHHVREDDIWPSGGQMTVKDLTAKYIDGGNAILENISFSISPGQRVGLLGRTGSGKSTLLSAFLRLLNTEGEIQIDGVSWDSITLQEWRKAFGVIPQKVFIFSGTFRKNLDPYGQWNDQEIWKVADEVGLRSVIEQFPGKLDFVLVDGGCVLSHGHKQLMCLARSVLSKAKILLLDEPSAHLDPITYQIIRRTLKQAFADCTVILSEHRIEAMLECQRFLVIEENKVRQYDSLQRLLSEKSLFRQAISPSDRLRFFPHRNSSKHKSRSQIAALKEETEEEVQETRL
T3 sequence (P13569 with tags, fused parts or gaps DEL508-508): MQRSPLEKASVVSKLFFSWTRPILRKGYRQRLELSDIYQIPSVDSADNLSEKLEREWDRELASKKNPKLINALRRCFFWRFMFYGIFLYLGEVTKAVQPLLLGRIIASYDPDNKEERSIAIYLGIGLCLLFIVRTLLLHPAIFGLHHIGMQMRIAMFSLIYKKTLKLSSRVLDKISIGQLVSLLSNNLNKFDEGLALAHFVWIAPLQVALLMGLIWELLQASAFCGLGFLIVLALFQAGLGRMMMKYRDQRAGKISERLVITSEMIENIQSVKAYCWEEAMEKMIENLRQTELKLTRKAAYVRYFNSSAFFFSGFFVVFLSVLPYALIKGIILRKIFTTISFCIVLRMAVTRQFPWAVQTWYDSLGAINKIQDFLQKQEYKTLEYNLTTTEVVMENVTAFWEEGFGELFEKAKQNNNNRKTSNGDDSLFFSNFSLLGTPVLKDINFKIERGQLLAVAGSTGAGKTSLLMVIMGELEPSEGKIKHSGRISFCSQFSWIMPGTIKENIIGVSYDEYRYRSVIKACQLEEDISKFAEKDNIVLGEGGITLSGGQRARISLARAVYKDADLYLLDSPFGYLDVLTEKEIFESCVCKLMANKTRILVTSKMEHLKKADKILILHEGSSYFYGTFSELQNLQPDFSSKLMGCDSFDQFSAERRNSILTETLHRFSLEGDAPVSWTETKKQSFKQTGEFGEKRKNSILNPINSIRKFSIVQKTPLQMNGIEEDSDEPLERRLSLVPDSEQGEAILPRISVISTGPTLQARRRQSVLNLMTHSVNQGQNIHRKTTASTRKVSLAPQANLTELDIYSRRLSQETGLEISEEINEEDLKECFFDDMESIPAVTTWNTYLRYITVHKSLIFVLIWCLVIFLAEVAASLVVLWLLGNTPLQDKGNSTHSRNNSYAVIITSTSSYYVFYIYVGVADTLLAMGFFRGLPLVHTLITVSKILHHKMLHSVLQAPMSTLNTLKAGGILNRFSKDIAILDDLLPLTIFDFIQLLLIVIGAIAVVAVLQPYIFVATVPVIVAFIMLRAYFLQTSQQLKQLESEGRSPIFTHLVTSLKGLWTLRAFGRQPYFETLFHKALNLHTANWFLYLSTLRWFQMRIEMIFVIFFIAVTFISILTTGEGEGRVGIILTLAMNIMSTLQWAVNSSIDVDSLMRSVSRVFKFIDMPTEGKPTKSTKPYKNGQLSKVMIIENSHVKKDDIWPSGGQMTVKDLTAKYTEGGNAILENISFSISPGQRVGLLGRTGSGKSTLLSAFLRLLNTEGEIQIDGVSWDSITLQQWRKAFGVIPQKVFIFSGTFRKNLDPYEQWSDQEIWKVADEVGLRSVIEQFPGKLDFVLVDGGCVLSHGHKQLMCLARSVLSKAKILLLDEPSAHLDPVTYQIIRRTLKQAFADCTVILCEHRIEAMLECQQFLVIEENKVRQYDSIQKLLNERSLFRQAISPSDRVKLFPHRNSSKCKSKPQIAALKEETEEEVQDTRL
T1 sequence (P13569 with tags, fused parts or gaps DEL508-508): as above
Chain of Wt-CFTR (P13569 whole entry): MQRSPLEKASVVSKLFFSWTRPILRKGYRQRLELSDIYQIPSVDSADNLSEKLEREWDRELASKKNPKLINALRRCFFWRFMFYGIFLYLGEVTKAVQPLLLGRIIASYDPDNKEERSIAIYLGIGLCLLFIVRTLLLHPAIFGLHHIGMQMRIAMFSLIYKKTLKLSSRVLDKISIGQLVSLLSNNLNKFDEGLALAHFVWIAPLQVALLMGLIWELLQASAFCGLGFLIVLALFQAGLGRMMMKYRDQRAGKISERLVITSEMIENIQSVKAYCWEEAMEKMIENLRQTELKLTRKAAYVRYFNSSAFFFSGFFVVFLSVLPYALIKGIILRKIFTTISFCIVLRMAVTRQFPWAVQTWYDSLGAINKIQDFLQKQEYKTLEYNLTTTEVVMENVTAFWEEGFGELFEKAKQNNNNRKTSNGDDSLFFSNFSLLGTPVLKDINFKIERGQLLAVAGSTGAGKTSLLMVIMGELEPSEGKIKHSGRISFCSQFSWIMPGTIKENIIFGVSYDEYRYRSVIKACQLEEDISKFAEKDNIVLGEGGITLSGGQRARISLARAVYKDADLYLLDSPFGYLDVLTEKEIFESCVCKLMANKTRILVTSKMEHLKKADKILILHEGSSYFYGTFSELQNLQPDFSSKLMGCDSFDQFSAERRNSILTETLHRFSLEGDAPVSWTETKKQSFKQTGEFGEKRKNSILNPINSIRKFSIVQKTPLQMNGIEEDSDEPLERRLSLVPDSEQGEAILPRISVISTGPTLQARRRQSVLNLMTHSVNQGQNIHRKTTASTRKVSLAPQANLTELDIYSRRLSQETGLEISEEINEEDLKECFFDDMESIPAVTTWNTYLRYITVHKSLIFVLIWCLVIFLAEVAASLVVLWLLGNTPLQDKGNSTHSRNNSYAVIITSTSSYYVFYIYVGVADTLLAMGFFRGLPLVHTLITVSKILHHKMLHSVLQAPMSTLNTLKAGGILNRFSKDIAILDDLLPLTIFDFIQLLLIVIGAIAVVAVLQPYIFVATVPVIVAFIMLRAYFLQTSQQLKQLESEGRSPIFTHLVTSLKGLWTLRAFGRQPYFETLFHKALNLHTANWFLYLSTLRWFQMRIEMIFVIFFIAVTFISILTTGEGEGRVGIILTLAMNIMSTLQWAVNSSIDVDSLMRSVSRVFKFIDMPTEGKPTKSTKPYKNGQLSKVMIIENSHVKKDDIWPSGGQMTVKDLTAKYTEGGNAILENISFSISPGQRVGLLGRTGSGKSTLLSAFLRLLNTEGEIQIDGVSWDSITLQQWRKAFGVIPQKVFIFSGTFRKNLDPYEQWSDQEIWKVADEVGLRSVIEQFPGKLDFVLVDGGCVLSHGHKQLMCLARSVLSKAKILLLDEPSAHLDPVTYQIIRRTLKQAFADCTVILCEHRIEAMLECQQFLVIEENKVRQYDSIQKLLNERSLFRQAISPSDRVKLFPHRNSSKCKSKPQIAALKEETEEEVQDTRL

With `CC(C)(C)c1ccc(-n2nc(-c3ccc(F)cc3)c(N3CCCCC3)c(N)c2=O)cc1O` [Compound 11, 4-amino-2-(4-(tert-butyl)-3-hydroxyphenyl)-6-(4-fluorophenyl)-5-(piperidin-1-yl)pyridazin-3(2H)-one] the EC50 (F508del-CFTR) was 5 nM, the “CFTR channel function in ferret bronchial tissue” value (CFTR) was “effective in augmenting CFTR channel function” and the EC50 (deltaF508 CFTR) was 10 nM. For the same molecule, the “forskolin activated short circuit currents mediated by Wt-CFTR” value (Wt-CFTR) was “potentiated”.
